Experimental findings from ChEMBL document CHEMBL4000166, “Stachybotrysin, an Osteoclast Differentiation Inhibitor from the Marine-Derived Fungus Stachybotrys sp. KCB13F013” (J Nat Prod, 2016) are described below.

The source made the active and inactive calls. No cut-off for these calls is given here.

Assay [1] deals with BMMC. Description: Inhibition of M-CSF/RANKL-induced osteoclast differentiation in mouse BMMC after 4 days by TRAP staining method. Format: functional, cell-based.
The species named for assay [2] is Mus musculus. Kind of assay: Inhibition of M-CSF/RANKL-induced JNK phosphorylation in mouse BMMC at 5 ug/ml preincubated with M-CSF for 6 mins followed by RANKL addition measured after 5 mins by Western blot method.
Assay [3] addresses T1, NF-kappa-B inhibitor alpha (Mus musculus) (UniProt Q9Z1E3).
T1 sequence (whole entry): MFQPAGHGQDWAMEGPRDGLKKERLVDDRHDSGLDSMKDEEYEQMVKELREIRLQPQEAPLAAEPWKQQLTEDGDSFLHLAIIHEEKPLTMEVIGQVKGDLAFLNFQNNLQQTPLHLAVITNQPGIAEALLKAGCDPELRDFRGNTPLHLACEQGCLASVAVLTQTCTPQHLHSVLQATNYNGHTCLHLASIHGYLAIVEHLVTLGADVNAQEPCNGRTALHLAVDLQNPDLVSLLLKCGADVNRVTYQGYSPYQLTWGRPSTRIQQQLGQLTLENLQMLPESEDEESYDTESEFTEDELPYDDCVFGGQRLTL
Description: Effect on IkappaBalpha phosphorylation in mouse BMMC at 5 ug/ml preincubated with M-CSF for 6 mins followed by RANKL addition measured after 5 to 30 mins by Western blot method.

Assay [4] is filed under the species Mus musculus. Description: Inhibition of M-CSF/RANKL-induced ERK phosphorylation in mouse BMMC at 5 ug/ml preincubated with M-CSF for 6 mins followed by RANKL addition measured after 5 mins by Western blot method.
In assay [5] the target is MAP kinase p38 (Mus musculus) (UniProt P47811+O08911+Q9WUI1+Q9Z1B7). Kind of assay: Inhibition of M-CSF/RANKL-induced p38 phosphorylation in mouse BMMC at 5 ug/ml preincubated with M-CSF for 6 mins followed by RANKL addition measured after 5 mins by Western blot method.
The subject of assay [6] is BMMC. Description: Inhibition of M-CSF/RANKL-induced osteoclast differentiation in mouse BMMC at 5 to 10 ug/ml after 4 days by TRAP staining method. The format is functional, cell-based.

On to `CC(=O)/C=C/c1c(CO)cc(O)c2c1O[C@]1(C2)[C@H](C)CC[C@H]2C(C)(C)[C@H](O)CC[C@@]21C`, for which the inhibition result with BMMC [1] was “Dose-dependent effect”. The inhibition entry (in the assay filed under Mus musculus [2]; in the assay filed under Mus musculus [4]; in assay [5]) was “Active” in each case. Further, the outcome in assay [3] was inactive.

On to `C[C@@H]1CC[C@H]2C(C)(C)[C@H](O)CC[C@]2(C)[C@@]12Cc1c(O)cc3c(c1O2)C(=O)OC3`, for which the inhibition entry in the assay with BMMC [6] is “inactive”.
